Measured values published in patent publication US9399646B2 (Genentech, Inc., priority 2010, dated 2016).

Experiments:
MCF-7 cells = assay: Breast cancer cell viability assay (CellTiter-Glo, 5 days); type: cell-based; details: 5 days' compound exposure; for IC50: Homo sapiens, MCF7, 120 h
Procedure, shortened: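 Eleven-point semilog compound series, final 0.3-0.000003 μM, added to overnight-adhered MCF-7 cells (320/well; RPMI, 10% FBS, 20 mM HEPES) for 5 days. Viability read by CellTiter-Glo luminescence, background from medium without cells subtracted, expressed relative to untreated cells.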

ER-α in MCF-7 cells = biological target: T1, ER-α in MCF-7 cells (Homo sapiens, UniProt P03372); assay: Breast cancer cell ER-α in cell western assay (SP1); type: cell-based; design: endogenous in cells; host or cells: MCF-7; details: 4 or 24 hr post compound addition; for Emax: MCF7, SP1 antibody, read-out: ER-α In Cell Western Assay (SP1) Max Response; for DC50: SP1 antibody, read-out: ER-α In Cell Western Assay (SP1) IC50
T1 sequence (P03372 1-595): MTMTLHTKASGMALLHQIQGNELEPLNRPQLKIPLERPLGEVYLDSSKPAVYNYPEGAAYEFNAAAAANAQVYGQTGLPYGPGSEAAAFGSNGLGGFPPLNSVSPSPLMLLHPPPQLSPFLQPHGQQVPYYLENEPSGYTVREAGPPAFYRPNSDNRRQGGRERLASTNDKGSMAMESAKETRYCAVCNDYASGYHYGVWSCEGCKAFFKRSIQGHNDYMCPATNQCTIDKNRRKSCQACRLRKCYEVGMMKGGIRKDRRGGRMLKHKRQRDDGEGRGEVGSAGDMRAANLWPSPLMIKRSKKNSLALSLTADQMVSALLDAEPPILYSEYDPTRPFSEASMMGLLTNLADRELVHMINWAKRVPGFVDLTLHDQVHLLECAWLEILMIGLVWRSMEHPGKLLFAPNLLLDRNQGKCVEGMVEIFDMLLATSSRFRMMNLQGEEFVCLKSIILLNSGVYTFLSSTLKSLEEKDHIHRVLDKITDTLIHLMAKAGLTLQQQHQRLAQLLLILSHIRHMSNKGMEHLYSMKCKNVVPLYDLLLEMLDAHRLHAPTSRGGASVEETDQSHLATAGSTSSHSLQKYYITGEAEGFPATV
Procedure, shortened: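 Fixed cells were immunostained with SP1 anti-ER antibody; ER signal (800 nm) was normalized to DRAQ5 DNA signal (700 nm) and expressed as % of untreated cells.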

Compound | MCF7 Viability Assay Max Response (MCF-7 cells) | IC50 (MCF-7 cells) [nM] | Emax (ER-α in MCF-7 cells) [%] | DC50 (ER-α in MCF-7 cells) [nM]
CC/C(=C(/c1ccc(/C=C/C(=O)O)cc1)c1ccc2[nH]ncc2c1)c1ccc2cn[nH]c2c1 [Compound 251, (E)-3-(4-((E)-1-(1H-Indazol-5-yl)-2-(1H-indazol-6-yl)but-1-en-1-yl)phenyl)acrylic acid] | ++ (++ = a single % value ≧ 40%) | > 100 | ≥ 40 | > 100
CC/C(=C(/c1ccc(/C=C/C(=O)O)cc1)c1ccc2[nH]ncc2c1)c1cccc(-n2cccn2)c1 [Compound 252, (E)-3-(4-((E)-2-(3-(1H-Pyrazol-1-yl)phenyl)-1-(1H-indazol-5-yl)but-1-en-1-yl)phenyl)acrylic acid] | ++ (++ = a single % value ≧ 40%) | > 100 | ≥ 40 | ≤ 100
CC/C(=C(/c1ccc(/C=C/C(=O)O)cc1)c1cc(F)c2[nH]ccc2c1)c1ccc(Cl)cc1Cl [Compound 253, (E)-3-(4-((E)-2-(2,4-Dichlorophenyl)-1-(7-fluoro-1H-indol-5-yl)but-1-en-1-yl)phenyl)acrylic acid] | ++ (++ = a single % value ≧ 40%) | ≤ 100 | ≥ 40 | ≤ 100
CC/C(=C(/c1ccc(/C=C/C(=O)O)cc1)c1cc(F)c2[nH]ccc2c1)c1ccc(F)cc1Cl [Compound 254, (E)-3-(4-((E)-2-(2-Chloro-4-fluorophenyl)-1-(7-fluoro-1H-indol-5-yl)but-1-en-1-yl)phenyl)acrylic acid] | ++ (++ = a single % value ≧ 40%) | ≤ 100 | ≥ 40 | ≤ 100
CC/C(=C(/c1ccc(/C=C/C(=O)O)cc1)c1ccc2[nH]ncc2c1)c1ccc2scnc2c1 [Compound 255, (E)-3-(4-((E)-2-(Benzo[d]thiazol-5-yl)-1-(1H-indazol-5-yl)but-1-en-1-yl)phenyl)acrylic acid] | ++ (++ = a single % value ≧ 40%) | ≤ 100 | ≥ 40 | ≤ 100
CC/C(=C(/c1ccc(/C=C/C(=O)O)cc1)c1ccc2[nH]ncc2c1)c1ccc2c(c1)CCO2 [Compound 256, (E)-3-(4-((E)-2-(2,3-Dihydrobenzofuran-5-yl)-1-(1H-indazol-5-yl)but-1-en-1-yl)phenyl)acrylic acid] | ++ (++ = a single % value ≧ 40%) | ≤ 100 | ≥ 40 | ≤ 100
Cc1cscc1/C(CC(C)C)=C(\c1ccc(/C=C/C(=O)O)cc1)c1ccc2[nH]ncc2c1 [Compound 257, (E)-3-(4-((E)-1-(1H-Indazol-5-l)-4-methyl-2-(4-methylthiophen-3-yl)pent-1-en-1-yl)phenyl)acrylic acid] | ++ (++ = a single % value ≧ 40%) | ≤ 100 | ≥ 40 | ≤ 100
CC/C(=C(/c1ccc(/C=C/C(=O)O)cc1)c1ccc2[nH]ncc2c1)c1ccc2cnn(C)c2c1 [Compound 258, (E)-3-(4-((E)-1-(1H-Indazol-5-yl)-2-(1-methyl-1H-indazol-6-yl)but-1-en-1-yl)phenyl)acrylic acid] | ++ (++ = a single % value ≧ 40%) | > 100 | ≥ 40 | ≤ 100
CC/C(=C(/c1ccc(/C=C/C(=O)O)cc1)c1ccc2[nH]ncc2c1)c1ccc2ncsc2c1 [Compound 259, (E)-3-(4-((E)-2-(Benzo[d]thiazol-6-yl)-1-(1H-indazol-5-yl)but-1-en-1-yl)phenyl)acrylic acid] | ++ (++ = a single % value ≧ 40%) | ≤ 100 | ≥ 40 | ≤ 100
CC/C(=C(/c1ccc(/C=C/C(=O)O)cc1)c1ccc2[nH]ncc2c1)c1ccc2nccn2c1 [Compound 260, (E)-3-(4-((E)-2-(Imidazo[1,2-a]pyridin-6-yl)-1-(1H-indazol-5-yl)but-1-en-1-yl)phenyl)acrylic acid] | + (+ = a single % value < 40%) | > 100 | < 40 | > 100
CC/C(=C(/c1ccc(/C=C/C(=O)O)cc1)c1ccc2[nH]ncc2c1)c1cccc(Oc2ccccc2)c1 [Compound 261, (E)-3-(4-((E)-1-(1H-Indazol-5-yl)-2-(3-phenoxyphenyl)but-1-en-1-yl)phenyl)acrylic acid] | ++ (++ = a single % value ≧ 40%) | ≤ 100 | ≥ 40 | ≤ 100
CC/C(=C(/c1ccc(/C=C/C(=O)O)cc1)c1ccc2[nH]ncc2c1)c1ccc2c(c1)N(C)C(=O)CO2 [Compound 262, (E)-3-(4-((E)-1-(1H-Indazol-5-yl)-2-(4-methyl-3-oxo-3,4-dihydro-2H-benzo[b][1,4]oxazin-6-yl)but-1-en-1-yl)phenyl)acrylic acid] | ++ (++ = a single % value ≧ 40%) | > 100 | ≥ 40 | > 100
CC/C(=C(/c1ccc(/C=C/C(=O)O)cc1)c1ccc2[nH]ncc2c1)c1ccc(Oc2ccccc2)cc1 [Compound 263, (E)-3-(4-((E)-1-(1H-Indazol-5-yl)-2-(4-phenoxyphenyl)but-1-en-1-yl)phenyl)acrylic acid] | ++ (++ = a single % value ≧ 40%) | ≤ 100 | ≥ 40 | ≤ 100
CC/C(=C(/c1ccc(/C=C/C(=O)O)cc1)c1ccc2[nH]ncc2c1)c1ccc(-n2cccn2)cc1 [Compound 264, (E)-3-(4-((E)-2-(4-(1H-Pyrazol-1-yl)phenyl)-1-(1H-indazol-5-yl)but-1-en-1-yl)phenyl)acrylic acid] | ++ (++ = a single % value ≧ 40%) | > 100 | ≥ 40 | > 100
CC/C(=C(/c1ccc(/C=C/C(=O)O)cc1)c1ccc2[nH]ncc2c1)c1cccc(N2CCOCC2)c1 [Compound 265, (E)-3-(4-((E)-1-(1H-Indazol-5-yl)-2-(3-morpholinophenyl)but-1-en-1-yl)phenyl)acrylic acid] | ++ (++ = a single % value ≧ 40%) | > 100 | ≥ 40 | > 100
CC/C(=C(/c1ccc(/C=C/C(=O)O)cc1)c1ccc2[nH]ncc2c1)c1ccc2nccnc2c1 [Compound 266, (E)-3-(4-((E)-1-(1H-Indazol-5-yl)-2-(quinoxalin-6-yl)but-1-en-1-yl)phenyl)acrylic acid] | ++ (++ = a single % value ≧ 40%) | ≤ 100 | ≥ 40 | ≤ 100
CC/C(=C(/c1ccc(/C=C/C(=O)O)cc1)c1ccc2[nH]ncc2c1)c1ccsc1Cl [Compound 267, (E)-3-(4-((E)-2-(2-Chlorothiophen-3-yl)-1-(1H-indazol-5-yl)but-1-en-1-yl)phenyl)acrylic acid] | ++ (++ = a single % value ≧ 40%) | ≤ 100 | ≥ 40 | ≤ 100
CC/C(=C(/c1ccc(/C=C/C(=O)O)cc1)c1ccc2[nH]ncc2c1)c1cc2ccccc2s1 [Compound 268, (E)-3-(4-((E)-2-(Benzo[b]thiophen-2-yl)-1-(1H-indazol-5-yl)but-1-en-1-yl)phenyl)acrylic acid] | ++ (++ = a single % value ≧ 40%) | > 100 | ≥ 40 | ≤ 100
CC/C(=C(/c1ccc(/C=C/C(=O)O)cc1)c1ccc2[nH]ncc2c1)c1cccc(Oc2ccc(F)cc2)c1 [Compound 269, (E)-3-(4-((E)-2-(3-(4-Fluorophenoxy)phenyl)-1-(1H-indazol-5-yl)but-1-en-1-yl)phenyl)acrylic acid] | ++ (++ = a single % value ≧ 40%) | ≤ 100 | ≥ 40 | ≤ 100
CC/C(=C(/c1ccc(/C=C/C(=O)O)cc1)c1ccc2[nH]ncc2c1)c1cc2c(s1)CCN(C)C2 [Compound 270, (E)-3-(4-((E)-1-(1H-Indazol-5-yl)-2-(5-methyl-4,5,6,7-tetrahydrothieno[3,2-c]pyridin-2-yl)but-1-en-1-yl)phenyl)acrylic acid] | ++ (++ = a single % value ≧ 40%) | > 100 | ≥ 40 | > 100
CC/C(=C(/c1ccc(/C=C/C(=O)O)cc1)c1ccc2[nH]ncc2c1)c1csc(-c2ccccc2)c1 [Compound 271, (E)-3-(4-((E)-1-(1H-Indazol-5-yl)-2-(5-phenylthiophen-3-yl)but-1-en-1-yl)phenyl)acrylic acid] | ++ (++ = a single % value ≧ 40%) | ≤ 100 | ≥ 40 | ≤ 100
